Assay results taken from patent US9790215B2 (FLATLEY DISCOVERY LAB, LLC, priority 2013, dated 2017).

Molecular target: T1, human ΔF508-CFTR (Homo sapiens, UniProt P13569, DEL508-508)
T1 construct: expressed in transfected cells
Assay: CFTR-YFP High Throughput Assay (YFP halide flux in FRT cells)
Format: cell-based
Settings: FRT cells expressing human ΔF508-CFTR and YFP; for EC50: forskolin stimulated
Method: Assays for Detecting and Measuring the Effect of Compounds on dF508-CFTR Channels CFRT-YFP High Throughput Assay:
The following protocol is designed to selectively screen small molecule compounds for F508del CFTR corrector activities in the HTS YFP flux assay. In this protocol, the cells are incubated with testing compounds for 24 hours, washed with PBS, stimulated with forskolin and a standard potentiator, and read on a 384-well HTS plate reader, such as the Hamamatsu FDDD-6000.
(§1) YFP fluorescence intensity is acquired at high speed before and after iodide buffer is injected to the assay cells. Iodide enters the cells via active CFTR channels in the plasma membrane, and quenches the YFP fluorescence. The rate of fluorescence quenching is proportionally related to the total CFTR activities in the cell membrane. dF508-CFTR corrector accelerates YFP quenching by increasing the number of CFTR molecules in the testing cell plasma membrane.
This method was initially developed for bench top plate readers (Galietta et al., 2001), and was adapted to the HTS format (Sui et al. Assay Drug Dev. Technol. 2010).
Fisher Rat Thyroid (FRT) cells stably expressing both human AF508-CFTR and a halide-sensitive yellow fluorescent protein (YFP—H148Q/1152L 25, 22) (Galietta et al., Am. J. Physiol Cell Physiol 281(5), C1734, 2001) were cultured on plastic surface in Coon's modified Ham's F12 medium supplemented with FBS 10%, L-glutamine 2 mM, penicillin 100 U/mL, and streptomycin 100 μg/mL. G418 (0.75-1.0 mg/mL) and zeocin (3.2 ug/mL) were used for selection of FRT cells expressing ΔF508-CFTR and YFP. For primary screening, FRT cells were plated into 384-well black wall, transparent bottom microtiter plates (Costar; Corning Inc.) at a cell density of 20,000-40,000 per well. Test compound was applied to the cells at varying concentrations ranging from […] in either a 2-fold or 3-fold dilution series. Cells were incubated in a cell culture incubator at 37° C. with 5% CO2 for 24-26 h. Assay plates were washed with DPBS media (Thermo, cat# SH30028.02) to remove unbound cells and compound. Stimulation media (25 μL) containing 20 μM Forskolin & 30 μM P3 [6-(Ethyl-phenyl-sulfonyl)-4-oxo-1,4-dihydro-quinoline-3-carboxylic acid 2-methoxy-benzylamide] in Hams F-12 coon's modified media was added to the plate wells and incubated at room temperature for 60-120 min. 25 μL of HEPES-PBS-I buffer (10 mM HEPES, 1 mM MgCl2, 3 mM KCl, 1 mM CaCl2, 150 mM NaI) was then added and fluorescence quench curves (Excitation 500 nm/Emission 540 nm; exposure 136 ms) were immediately recorded on an FDSS-6000 plate reader (Hamamatsu). Quench rates were derived from least squares fitting of the data as described by Sui et al., (2010).
The following protocol is designed to selectively screen small molecule compounds for F508del CFTR potentiator activities in the HTS YFP flux assay. In this protocol, the cells are incubated at 27 C for 24 hours with homogeneously boosted dF508-CFTR expression in the cell membrane by the low temperature, washed with PBS, stimulated with forskolin, and read on a 384-well HTS plate reader, such as the Hamamatsu FDDD-6000.
as §1, with “dF508del-CFTR potentiators accelerate” for “dF508-CFTR corrector accelerates”, “increasing” for “increasing the number of”, “activities” for “molecules”
Fisher Rat Thyroid (FRT) cells stably expressing both human ΔF508-CFTR and a halide-sensitive yellow fluorescent protein (YFP-H148Q/I152L 25, 22) (Galietta et al., Am. J. Physiol Cell Physiol 281(5), C1734, 2001) were cultured on plastic surface in Coon's modified Ham's F12 medium supplemented with FBS 10%, L-glutamine 2 mM, penicillin 100 U/mL, and streptomycin 100 μg/mL. […]

T1 sequence (P13569 with tags, fused parts or gaps DEL508-508): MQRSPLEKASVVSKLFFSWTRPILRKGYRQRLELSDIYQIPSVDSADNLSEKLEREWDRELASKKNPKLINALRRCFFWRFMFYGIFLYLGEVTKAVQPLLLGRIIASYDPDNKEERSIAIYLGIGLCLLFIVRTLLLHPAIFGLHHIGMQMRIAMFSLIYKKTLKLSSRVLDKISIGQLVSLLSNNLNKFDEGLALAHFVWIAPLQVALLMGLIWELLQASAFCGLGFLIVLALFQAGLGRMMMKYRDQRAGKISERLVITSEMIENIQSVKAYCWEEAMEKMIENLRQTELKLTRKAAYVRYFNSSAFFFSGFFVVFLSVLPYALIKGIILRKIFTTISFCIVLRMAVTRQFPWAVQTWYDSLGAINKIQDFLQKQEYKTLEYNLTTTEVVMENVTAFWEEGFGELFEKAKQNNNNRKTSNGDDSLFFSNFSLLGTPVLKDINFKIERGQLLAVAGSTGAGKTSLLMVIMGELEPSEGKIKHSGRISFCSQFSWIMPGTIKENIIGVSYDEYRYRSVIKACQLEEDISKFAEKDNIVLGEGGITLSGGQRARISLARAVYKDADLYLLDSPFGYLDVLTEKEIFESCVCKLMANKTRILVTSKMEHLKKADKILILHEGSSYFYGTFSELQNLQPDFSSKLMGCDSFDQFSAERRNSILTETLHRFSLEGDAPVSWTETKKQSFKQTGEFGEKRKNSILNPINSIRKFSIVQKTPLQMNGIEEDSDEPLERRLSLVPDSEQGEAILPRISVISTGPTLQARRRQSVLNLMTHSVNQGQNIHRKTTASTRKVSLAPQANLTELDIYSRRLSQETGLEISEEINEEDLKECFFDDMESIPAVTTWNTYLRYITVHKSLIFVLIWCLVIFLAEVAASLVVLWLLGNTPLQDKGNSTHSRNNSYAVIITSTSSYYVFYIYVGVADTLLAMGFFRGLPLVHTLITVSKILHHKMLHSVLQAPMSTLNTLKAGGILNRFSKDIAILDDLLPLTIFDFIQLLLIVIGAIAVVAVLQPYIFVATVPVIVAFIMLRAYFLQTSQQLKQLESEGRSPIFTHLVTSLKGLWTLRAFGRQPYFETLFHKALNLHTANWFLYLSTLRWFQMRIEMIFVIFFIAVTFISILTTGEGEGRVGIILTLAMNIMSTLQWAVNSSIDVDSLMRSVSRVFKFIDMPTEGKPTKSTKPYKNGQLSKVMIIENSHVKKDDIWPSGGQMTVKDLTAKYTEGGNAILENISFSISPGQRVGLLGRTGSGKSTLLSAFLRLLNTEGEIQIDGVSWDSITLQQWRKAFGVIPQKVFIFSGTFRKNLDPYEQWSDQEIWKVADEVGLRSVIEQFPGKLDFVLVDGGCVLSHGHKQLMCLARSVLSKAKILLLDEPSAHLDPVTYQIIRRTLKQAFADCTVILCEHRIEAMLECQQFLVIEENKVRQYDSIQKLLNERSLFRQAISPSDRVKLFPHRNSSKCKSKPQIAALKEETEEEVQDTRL

| % Efficacy (Emax normalized to the positive control) | EC50 | Molecule |
| --- | --- | --- |
| ++ (a range of 80%-30%) | > 20 µM | 2-(4-(3-aminophenyl)-1-oxophthalazin-2(1H)-yl)-N-ethyl-N-(4-ethylphenyl)acetamide [Example 7] |
| +++ (EMAX > 80%) | < 10 µM | 2-(4-(3-chlorophenyl)-1-oxophthalazin-2(1H)-yl)-N-(2,2-difluorobenzo[d][1,3]dioxol-5-yl)-N-ethylacetamide [Example 21] |
| ++ (a range of 80%-30%) | > 20 µM | 2-(4-(3-cyanophenyl)-1-oxophthalazin-2(1H)-yl)-N-(2,2-difluorobenzo[d][1,3]dioxol-5-yl)-N-ethylacetamide [Example 20] |
| ++ (a range of 80%-30%) | < 10 µM | 2-(4-(3-cyanophenyl)-1-oxophthalazin-2(1H)-yl)-N-ethyl-N-(4-ethylphenyl)acetamide [Example 16] |
| + (a range of 30%-10%) | < 10 µM | 2-(4-(benzo[d][1,3]dioxol-4-yl)-1-oxophthalazin-2(1H)-yl)-N-ethyl-N-(4-ethylphenyl)acetamide [Example 9] |
| + (a range of 30%-10%) | > 20 µM | 3-(3-(2-(ethyl(4-ethylphenyl)amino)-2-oxoethyl)-4-oxo-3,4-dihydrophthalazin-1-yl)benzamide [Example 10] |
| +++ (EMAX > 80%) | 10 to 20 µM | 4-(3-(2-((2,2-difluorobenzo[d][1,3]dioxol-5-yl)(ethyl)amino)-2-oxoethyl)-4-oxo-3,4-dihydro-phthalazin-1-yl)benzamide [Example 18] |
| ++ (a range of 80%-30%) | 10 to 20 µM | 4-(3-(2-(ethyl(4-ethylphenyl)amino)-2-oxoethyl)-4-oxo-3,4-dihydrophthalazin-1-yl)benzamide [Example 11] |
|  | 10 to 20 µM | CCc1ccc(N(CC)C(=O)Cn2nc(-c3ccccc3)c3ccccc3c2=O)cc1 [Example 1, N-ethyl-N-(4-ethylphenyl)-2-(1-oxo-4-phenylphthalazin-2(1H)-yl)acetamide] |
|  | < 10 µM | CCc1ccc(N(CC)C(=O)Cn2nc(-c3ccc(O)cc3)c3ccccc3c2=O)cc1 [Example 2, N-ethyl-N-(4-ethylphenyl)-2-(4-(4-hydroxyphenyl)-1-oxophthalazin-2(1H)-yl)acetamide] |
|  | > 20 µM | CCc1ccc(N(CC)C(=O)Cn2nc(-c3cccnc3)c3ccccc3c2=O)cc1 [Example 3, N-ethyl-N-(4-ethylphenyl)-2-(1-oxo-4-(pyridin-3-yl)phthalazin-2(1H)-yl)acetamide] |
|  | > 20 µM | CCc1ccc(N(CC)C(=O)Cn2nc(-c3ccncc3)c3ccccc3c2=O)cc1 [Example 4, N-ethyl-N-(4-ethylphenyl)-2-(1-oxo-4-(pyridin-4-yl)phthalazin-2(1H)-yl)acetamide] |
|  | 10 to 20 µM | CCc1ccc(N(CC)C(=O)Cn2nc(-c3cccc4ncccc34)c3ccccc3c2=O)cc1 [Example 5, N-ethyl-N-(4-ethylphenyl)-2-(1-oxo-4-(quinolin-5-yl)phthalazin-2(1H)-yl)acetamide] |
|  | < 10 µM | CCc1ccc(N(CC)C(=O)Cn2nc(-c3cccc4cnccc34)c3ccccc3c2=O)cc1 [Example 6, N-ethyl-N-(4-ethylphenyl)-2-(4-(isoquinolin-5-yl)-1-oxophthalazin-2(1H)-yl)acetamide] |
|  | > 20 µM | CCN(C(=O)Cn1nc(-c2cccnc2)c2ccccc2c1=O)c1ccc2c(c1)OC(F)(F)O2 [Example 24] |
|  | < 10 µM | CCc1ccc(N(CC)C(=O)Cn2nc(Cc3cccnc3)c3ccccc3c2=O)cc1 [Example 25, N-ethyl-N-(4-ethylphenyl)-2-(1-oxo-4-(pyridin-3-ylmethyl)phthalazin-2(1H)-yl)acetamide] |
|  | < 10 µM | CCN(C(=O)Cn1nc(Cc2cccnc2)c2ccccc2c1=O)c1ccc2c(c1)OC(F)(F)O2 [Example 26, N-(2,2-difluorobenzo[d][1,3]dioxol-5-yl)-N-ethyl-2-(1-oxo-4-(pyridin-3-ylmethyl)phthalazin-2(1H)-yl)acetamide] |
|  | < 10 µM | COc1ccc(N(C)C(=O)Cn2nc(Cc3cccnc3)c3ccccc3c2=O)cc1 [Example 27, N-(4-methoxyphenyl)-N-methyl-2-(1-oxo-4-(pyridin-3-ylmethyl)phthalazin-2(1H)-yl)acetamide] |
|  | < 10 µM | CCc1ccc(N(CC)C(=O)Cn2nc(Cc3cccnc3)c3ccc(C)cc3c2=O)cc1 [Example 28, N-ethyl-N-(4-ethylphenyl)-2-(7-methyl-1-oxo-4-(pyridin-3-ylmethyl)phthalazin-2(1H)-yl)acetamide] |
|  | < 10 µM | CCc1ccc(N(CC)C(=O)Cn2nc(Cc3cccnc3)c3cc(C)ccc3c2=O)cc1 [Example 29, N-ethyl-N-(4-ethylphenyl)-2-(6-methyl-1-oxo-4-(pyridin-3-ylmethyl)phthalazin-2(1H)-yl)acetamide] |
|  | < 10 µM | CCc1ccc(N(CC)C(=O)Cn2nc(Cc3cccnc3)c3cccc(C)c3c2=O)cc1 [Example 30, N-ethyl-N-(4-ethylphenyl)-2-(8-methyl-1-oxo-4-(pyridin-3-ylmethyl)phthalazin-2(1H)-yl)acetamide] |
|  | < 10 µM | CCc1ccc(N(CC)C(=O)Cn2nc(Cc3cccnc3)c3c(C)cccc3c2=O)cc1 [Example 31, N-ethyl-N-(4-ethylphenyl)-2-(5-methyl-1-oxo-4-(pyridin-3-ylmethyl)phthalazin-2(1H)-yl)acetamide] |
|  | < 10 µM | CCc1ccc(N(CC)C(=O)Cn2nc(Cc3cccnc3)c3cc(OC)c(OC)cc3c2=O)cc1 [Example 32, 2-(6,7-dimethoxy-1-oxo-4-(pyridin-3-ylmethyl)phthalazin-2(1H)-yl)-N-ethyl-N-(4-ethylphenyl)acetamide] |
|  | < 10 µM | CCc1ccc(N(CC)C(=O)Cn2nc(Cc3cccnc3)c3ccc(C(C)(C)C)cc3c2=O)cc1 [Example 33, 2-(7-(tert-butyl)-1-oxo-4-(pyridin-3-ylmethyl)phthalazin-2(1H)-yl)-N-ethyl-N-(4-ethylphenyl)acetamide] |
|  | < 10 µM | CCc1ccc(N(CC)C(=O)Cn2nc(Cc3cccnc3)c3cc(C(C)(C)C)ccc3c2=O)cc1 [Example 34, 2-(6-(tert-butyl)-1-oxo-4-(pyridin-3-ylmethyl)phthalazin-2(1H)-yl)-N-ethyl-N-(4-ethylphenyl)acetamide] |
|  | < 10 µM | CCc1ccc(N(CC)C(=O)Cn2nc(Cc3cccnc3)c3ccc(OC)cc3c2=O)cc1 [Example 35, N-ethyl-N-(4-ethylphenyl)-2-(7-methoxy-1-oxo-4-(pyridin-3-ylmethyl)phthalazin-2(1H)-yl)acetamide] |

| Molecule | % Efficacy (Emax normalized to the positive control) | EC50 |
| --- | --- | --- |
| 4-(3-(2-((2,2-difluorobenzo[d][1,3]dioxol-5-yl)(ethyl)amino)-2-oxoethyl)-4-oxo-3,4-dihydrophthalazin-1-yl)benzoic acid [Example 19] | +++ (EMAX > 80%) | 10 to 20 µM |
| 4-(3-(2-(ethyl(4-ethylphenyl)amino)-2-oxoethyl)-4-oxo-3,4-dihydrophthalazin-1-yl)benzoic acid [Example 13] | ++ (a range of 80%-30%) | 10 to 20 µM |
